Legend:
Format in all cases: in vivo
[1] = tested on: Puccinia triticina; assay: Fungicide mobility (dropline mobility test), wheat brown rust (PUCCRT); settings: 1 ug/leaf, disease-free zone as percent of distance from marked line to leaf tip; for Dropline Mobility Test PUCCRT 1 DPM: 1 Day Protectant Mobility; for Dropline Mobility Test PUCCRT 3 DCM: 3 Day Curative Mobility
In short: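 Yuma wheat primary leaves, held horizontal, got a 2 μl drop of EC-formulated compound in water with 110 ppm Triton X-100 on a line 5 cm from the tip; 6 replicates. Inoculation 1 day after or 3 days before application. Acropetal disease-free zone measured as percent of line-to-tip distance once control rust fully expressed.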

[2] = tested on: Erysiphe cichoracearum; assay: Powdery mildew of cucumber (ERYSCI) fungicidal activity; settings: Golovinomyces cichoracearum, 24 h, 1 Day Protectant, read-out: Disease Control ERYSCI 1DP
Description: Technical grades of materials were dissolved in acetone, which were then mixed with nine volumes of water containing 110 ppm Triton X-100. The fungicide solutions were applied onto wheat seedlings using an automated booth sprayer to run-off. All sprayed plants were allowed to air dry prior to further handling. Wheat plants (variety Yuma) were grown from seed in a greenhouse in 50% mineral soil/50% soil-less Metro mix until the first leaf was fully emerged, with 7-10 seedlings per pot. These plants were inoculated with an aqueous spore suspension of Septoria tritici either prior to or after fungicide treatments. After inoculation the plants were kept in 100% relative humidity (one day in a dark dew chamber followed by two to three days in a lighted dew chamber at 20° C.) to permit spores to germinate and infect the leaf. The plants were then transferred to a greenhouse set at 20° C. for disease to develop. When disease symptoms were fully expressed on the 1st leaves of untreated plants, infection levels were assessed on a scale of 0 to 100 percent disease severity. Percent disease control was calculated using the ratio of disease severity on treated plants relative to untreated plants. Evaluation of Fungicidal Activity: Powdery Mildew of Cucumber (Erysiphe cichoracearum; Bayer Code […]) Cucumber seedlings (variety Bush Pickle) were grown in soil-less Metro mix, with one plant per pot, and used in the test when 12 to 14 days old. Plants were inoculated with a spore suspension 24 hr following fungicide treatments. After inoculation the plants remained in the greenhouse set at 20° C. until disease was fully expressed. Fungicide formulation, application and disease assessment on the sprayed leaves followed the procedures as described in the Example A.

[3] = tested on: Blumeria graminis f. sp. tritici; assay: Wheat powdery mildew (ERYSGT) fungicidal activity; settings: 24 h, 1 Day Protectant, read-out: Disease Control ERYSGT 1DP
Description: Technical grades of materials were dissolved in acetone, which were then mixed with nine volumes of water containing 110 ppm Triton X-100. The fungicide solutions were applied onto wheat seedlings using an automated booth sprayer to run-off. All sprayed plants were allowed to air dry prior to further handling. Wheat plants (variety Yuma) were grown from seed in a greenhouse in 50% mineral soil/50% soil-less Metro mix until the first leaf was fully emerged, with 7-10 seedlings per pot. These plants were inoculated with an aqueous spore suspension of Septoria tritici either prior to or after fungicide treatments. After inoculation the plants were kept in 100% relative humidity (one day in a dark dew chamber followed by two to three days in a lighted dew chamber at 20° C.) to permit spores to germinate and infect the leaf. The plants were then transferred to a greenhouse set at 20° C. for disease to develop. When disease symptoms were fully expressed on the 1st leaves of untreated plants, infection levels were assessed on a scale of 0 to 100 percent disease severity. Percent disease control was calculated using the ratio of disease severity on treated plants relative to untreated plants. Evaluation of Fungicidal Activity: Wheat Powdery Mildew (Blumeria Graminis f. sp. Tritici; Synonym: Erysiphe graminis f. sp. Tritici; Bayer Code […]) Wheat plants (variety Yuma) were grown from seed in a greenhouse in 50% mineral soil/50% soil-less Metro mix until the first leaf was fully emerged, with 7-10 seedlings per pot. These plants were inoculated by dusting with infected stock plants 24 hr after fungicide treatments. After inoculation the plants were kept in a greenhouse set at 20° C. for disease to develop. Fungicide formulation, application and disease assessment on the sprayed leaves followed the procedures as described in the Example A.

[4] = tested on: Blumeria graminis f. sp. hordei; assay: Barley powdery mildew (ERYSGH) fungicidal activity; settings: 24 h, 1 Day Protectant, read-out: Disease Control ERYSGH 1DP
Description: Technical grades of materials were dissolved in acetone, which were then mixed with nine volumes of water containing 110 ppm Triton X-100. The fungicide solutions were applied onto wheat seedlings using an automated booth sprayer to run-off. All sprayed plants were allowed to air dry prior to further handling. Wheat plants (variety Yuma) were grown from seed in a greenhouse in 50% mineral soil/50% soil-less Metro mix until the first leaf was fully emerged, with 7-10 seedlings per pot. These plants were inoculated with an aqueous spore suspension of Septoria tritici either prior to or after fungicide treatments. After inoculation the plants were kept in 100% relative humidity (one day in a dark dew chamber followed by two to three days in a lighted dew chamber at 20° C.) to permit spores to germinate and infect the leaf. The plants were then transferred to a greenhouse set at 20° C. for disease to develop. When disease symptoms were fully expressed on the 1st leaves of untreated plants, infection levels were assessed on a scale of 0 to 100 percent disease severity. Percent disease control was calculated using the ratio of disease severity on treated plants relative to untreated plants. Evaluation of Fungicidal Activity: Barley Powdery Mildew (Blumeria Graminis f. sp. Hordei; Synonym: Erysiphe Graminis f. sp. Hordei; Bayer Code […]) Barley seedlings (variety Harrington) were propagated in soil-less Metro mix, with each pot having 8 to 12 plants, and used in the test when first leaf was fully emerged. Test plants were inoculated by dusting with infected stock plants 24 hr after fungicide treatments. After inoculation the plants were kept in a greenhouse set at 20° C. for disease to develop. Fungicide formulation, application and disease assessment on the sprayed leaves followed the procedures as described in the Example A.

## CCCO[C@@H]1[C@@H](Cc2ccccc2)COC[C@H](NC(=O)c2nccc(OC)c2OCOC(C)=O)C(=O)O[C@H]1C [Compound 22]
[1]
  Dropline Mobility Test PUCCRT 1 DPM: B (More than 0-Less than 80)
  Dropline Mobility Test PUCCRT 3 DCM: B (More than 0-Less than 80)
[2]
  pest or weed control at 100 ppm: 80 to 100%
[3]
  pest or weed control at 100 ppm: 80 to 100%
[4]
  pest or weed control at 100 ppm: 80 to 100%

## COc1ccnc(C(=O)N[C@H]2COC[C@H](Cc3ccccc3)[C@@H](OCC(C)C)[C@H](C)OC2=O)c1OC(=O)OC(C)C [Compound 10, 2-(((3S,7S,8R,9S)-7-benzyl-8-isobutoxy-9-methyl-2-oxo-1,5-dioxonan-3-yl)carbamoyl)-4-methoxypyridin-3-yl isopropyl carbonate]
[1]
  Dropline Mobility Test PUCCRT 1 DPM: B (More than 0-Less than 80)
  Dropline Mobility Test PUCCRT 3 DCM: B (More than 0-Less than 80)
[2]
  pest or weed control at 100 ppm: 80 to 100%
[3]
  pest or weed control at 100 ppm: 0 to 80%
[4]
  pest or weed control at 100 ppm: 80 to 100%

## COc1ccnc(C(=O)N[C@H]2COC[C@H](Cc3ccccc3)[C@@H](OCC(C)C)[C@H](C)OC2=O)c1OCOC(C)=O [Compound 8, (2-((3S,7S,8R,9S)-7-benzyl-8-isobutoxy-9-methyl-2-oxo-1,5-dioxonan-3-ylcarbamoyl)-4-methoxypyridin-3-yloxy)methyl acetate]
[1]
  Dropline Mobility Test PUCCRT 1 DPM: B (More than 0-Less than 80)
  Dropline Mobility Test PUCCRT 3 DCM: B (More than 0-Less than 80)
[2]
  pest or weed control at 100 ppm: 80 to 100%
[3]
  pest or weed control at 100 ppm: 80 to 100%
[4]
  pest or weed control at 100 ppm: 80 to 100%
